Earlier results, collected in patent publication US20210130806A1, “ENGINEERED BACTERIA EXPRESSING RACEMASE FOR TREATING DISEASES ASSOCIATED WITH HYPERAMMONEMIA” (Synlogic Operating Company, Inc., priority 2017, published 2021).

What was measured:
hepatic encephalopathy = conditions: compared with placebo, over a 6-month period
E. coli = conditions: in vitro and in clinical studies

## CO[C@H]1/C=C/O[C@@]2(C)Oc3c(C)c(O)c4c(O)c(c5c(nc6cc(C)ccn65)c4c3C2=O)NC(=O)/C(C)=C\C=C\[C@H](C)[C@H](O)[C@@H](C)[C@@H](O)[C@@H](C)[C@H](OC(C)=O)[C@@H]1C [Rifaximin]
Hepatic encephalopathy
  risk of an episode of hepatic encephalopathy: significantly reduce
E. coli
  activity against E. coli: active
